≈ marks a conversion by molar mass, not a printed value.
What was measured:
[1] = Solubility in solvents (physicochemical description); details: qualitative, organic solvents and water
[2] = test system: human Burkitt's lymphoma cell line (Raji, ATCC No. CRL-86); assay: Proliferation inhibition of human Burkitt's lymphoma cell line Raji (Cell Counting Kit-8); format: cell-based; details: Raji cells, 72 hours culture, Cell Counting Kit-8, absorbance 450 nm; for IC50: Homo sapiens, read-out: IC50 (compound concentration with a proliferation-inhibition rate of 50%), Raji
Procedure: (§1) Human BuRkitt's lymphoma cell line (DG-75, ATCC No. CRL-2675) or human Burkitt's lymphoma cell line (Raji, ATCC No. CRL-86) was suspended in an RPMI-1640 medium (SIGMA) (hereinafter called culture solution) containing 10% calf serum (Moregate) and 10% fetal bovine serum (Hyclone) so as to set the cell number at 1×10^5/mL. After 50 μL of the cell suspension was added to a 96-well microplate, 49 μL of the above culture solution was added thereto to set the whole volume at 99 μL. Compounds represented by Formulae (6) to (11) that solved in DMSO, 5-FU (Wako) or doxorubicin (Wako) (all 0.0001 to 10 μg/mL) were each added to one well by 1 μL, and cultured with a CO2 concentration of 5% at 37° C. for 72 hours. After culturing, 10 μL of Wako cell Counting Kit-8 (Wako) was added to each well and subjected to color reaction in a CO2 incubator for 3 hours. Proliferation-inhibition rate was calculated from absorbance values measured with a microplate reader at 450 nm (reference wavelength: 620 nm) using the following expression to determine a compound concentration in a culture solution with a proliferation-inhibition rate of 50% as IC50 value.

[3] = test system: Human BuRkitt's lymphoma cell line (DG-75, ATCC No. CRL-2675); assay: Proliferation inhibition of human Burkitt's lymphoma cell line DG-75 (Cell Counting Kit-8); format: cell-based; details: DG-75 cells, 72 hours culture, Cell Counting Kit-8, absorbance 450 nm; for IC50: Homo sapiens, read-out: IC50 (compound concentration with a proliferation-inhibition rate of 50%), DG-75
Procedure: as §1

[4] = test system: Meth A fibrosarcoma cells; assay: Anticancer activity in mice with transplanted Meth A fibrosarcoma cells (tumor weight); format: in vivo, Balb/c mouse; details: for Proliferation-inhihition rate (%): 1/3 of the whole volume at 7th, 9th and 11th days, tumor weight at 21st day, female Balb/c mouse
Procedure: A compound represented by Formula (8) (50 to 500 μg/kg) that solved in ethanol or 5-FU (10 mg/kg) was administered to an 8-week old female Balb/c mouse (Japan SLC) having approx. 1×10^5 of Meth A fibrosarcoma cells (Kitasato Institute) intraperitoneally transplanted therein by ⅓ of the whole volume at 7th, 9th and 11th days intravenously (but 5-FU administered intraperitoneally) to measure tumor weight at 21st day. Using a control mouse to which normal saline solution was administered in lieu of a test compound, anticancer activity on each compound was expressed in number according to a formula of proliferation-inhibition rate (%)=(1−(sample/blank))×100.

Compound | Solubility [1] | IC50 [2] | IC50 [3] | also measured
C/C=C/C/C=C/C(C)CC(O)C1CC2OC2/C=C/C(O)C(O)/C=C/CC(C)CC(=O)O1 (stereo not drawn) [Compound 11] | soluble in chloroform, acetone, ethyl acetate and ethanol, insoluble in water and hexane | 0.05 µg/mL (≈ 0.115 µM) | 0.08 µg/mL (≈ 0.184 µM) | –
COc1cccc2c1C(=O)c1c(O)c3c(c(O)c1C2=O)C[C@@](O)(C(=O)CO)C[C@@H]3O[C@H]1C[C@H](N)[C@H](O)[C@H](C)O1 [Doxorubicin, doxorubicin, reference compound] | – | 0.02 µg/mL (≈ 0.0368 µM) | 0.04 µg/mL (≈ 0.0736 µM) | –
C=C1/C=C(\C)C(C)CC(O)CC(=O)C(O)C(O)C(C)CC(C)OC(=O)C(C)C(O)CCCCC2OC2CC(C)C1 (stereo not drawn) [Compound 6] | soluble in alcohol, chloroform, ethyl acetate and acetone, insoluble in hexane and water | – | 0.02 µg/mL (≈ 0.0353 µM) | –
C/C1=C/C(=O)C(C)(O)/C=C/CC(C)C(CC(C)C(C)O)OC(=O)/C=C(/C)C(C)C(O)/C=C/CC(O)C1 (stereo not drawn) [Compound 9] | soluble in chloroform, acetone, ethyl acetate and ethanol, insoluble in water and hexane | – | 0.9 µg/mL (≈ 1.78 µM) | –
C=C1CC2C/C=C/C(O)C(C)/C(C)=C\C(=O)OC(CC(C)C(C)O)C(C)C/C=C/C(C)(O)C(O)(C1)O2 (stereo not drawn) [Compound 8] | soluble in chloroform, acetone, ethyl acetate, ethanol and methanol, insoluble in water and hexane | 0.003 µg/mL (≈ 0.00592 µM) | 0.002 µg/mL (≈ 0.00395 µM) | Proliferation-inhihition rate (%) ([4]; 50 μg/kg, intravenously): 5.3%; Proliferation-inhihition rate (%) ([4]; 200 μg/kg, intravenously): 62.2%; Proliferation-inhihition rate (%) ([4]; 500 μg/kg, intravenously): 54.3%; Proliferation-inhibition rate (anticancer activity) compared with 5-FU ([4]; Meth A fibrosarcoma mouse model, Formula (8) administered with a lower concentration than 5-FU): almost the same proliferation-inhibition rate (anticancer activity) as 5-FU
C=C(C(O)CC)C(C)C(O)C1CCC/C(C)=C/C2OC(CC2C)C2OC(CC/C=C/CCC(C)C(=O)O1)CC2O (stereo not drawn) [Compound 10] | soluble in chloroform, acetone, ethyl acetate and ethanol, insoluble in water and hexane | 0.01 µg/mL (≈ 0.0178 µM) | 0.006 µg/mL (≈ 0.0107 µM) | –
O=c1[nH]cc(F)c(=O)[nH]1 [Compound 5-FU, 5-FU, reference compound] | – | – | – | IC50 (compound concentration with a proliferation-inhibition rate of 50%), Raji [2]: 3.0 µg/mL; IC50 (compound concentration with a proliferation-inhibition rate of 50%), DG-75 [3]: 0.9 µg/mL; Proliferation-inhihition rate (%) ([4]; 10000 μg/kg (10 mg/kg), intraperitoneally): 60.2%
C=C1/C=C(\C)C(C)CC(O)CC(=O)C(O)C(O)C(C)CC(C)OC(=O)/C(C)=C/CCCCC2OC2CC(C)C1 (stereo not drawn) [Compound 7] | soluble in alcohol, chloroform, ethyl acetate and acetone, insoluble in hexane and water | – | 0.4 µg/mL (≈ 0.729 µM) | –

Source: patent US8071793B2, “Macrolide compound” (National University Corporation Hokkaido University, priority 2006, dated 2011)
